In US20130149740A1, “METHOD FOR THE PRODUCTION OF A POLYMERIZED PRODUCT” (Baxter Healthcare S.A., priority 2011, published 2013):

Experiments:
[1] = Viscosity and estimated capillary number of fibrin sealant components and mixes (squeezing regime); format: physicochemical; settings: at 130 s^−1
Experimental: For these experiments, the experimental device and set-up was the same as described above. However, the liquid which is segmented by air is a mix. Raw products are fibrinogen (with methylene blue as coloring agent) and thrombin from TISSEEL kit which have to be mixed prior to segmentation. A Duploject system was applied which can be completed with a mixing device upstream the T-junction.
Under the “squeezing” regime of segmentation, the viscosities in the following table are calculated for different components, as well as the corresponding capillary numbers for mixes.

[2] = Doxorubicin living time (stability), concentration followed by fluorescence; format: physicochemical; settings: in presence of fibrin
From the text: DX has some fluorescence properties which can easily be used to measure its concentration in a solution. Indeed, excited with a 470 nm light, it emits a 593 light which intensity depends on DX concentration.

Row | Compound | Viscosity [1] | DX living time [2]
1 | [Ca+2].[Cl-].[Cl-] [CaCl2 (40 μmol/ml), CaCl2] | 1.3 cP | 
2 | COc1cccc2c1C(=O)c1c(O)c3c(c(O)c1C2=O)C[C@@](O)(C(=O)CO)C[C@@H]3O[C@H]1C[C@H](N)[C@H](O)[C@H](C)O1 [DX, Doxorubicin] |  | higher than 14 days
